Assay results: patent US20110262562A1, “AQUEOUS SALINE SOLUTIONS FOR THE DESTRUCTION OF FATTY TISSUE” (LIPOLYANE, priority 2008, published 2011)

Assays:
[1] = tested on: line of human adipocytes (SW872); assay: LDH activity released on lysis of human adipocytes in culture; type: cell-based
Protocol: To do this, adipocytes were incubated for durations comprised between 0 and 2 hours, in aqueous saline solutions according to the invention, and for which the concentrations of poloxamers and of biliary acid […]
The efficiency of adipocyte lysis was appreciated by the measurement of the activity of a cytosolic enzyme lactico dehydrogenase (LDH), released in the culture medium and expressed as a percentage of the total lysis.
The cells were derived from a line of human adipocytes (SW872) stemming from a liposarcoma deposited at the American Cell Bank of the National Institute of Health (NIH).
The adipocytes were cultivated in the following medium: DMEM (Dubelco's modified Eagle medium) with a high glucose content (4.5 g/L) which contained pyruvate, antibiotics (penicillin/streptomycin), a supplement of amino acids and 25% of Ham-F12 medium.
It should be noted that the experiments were then conducted in the presence of 1% fetal calf serum in order to minimize basal LDH activity likely to be present in the serum.
The salts of biliary acids and/or the poloxamers were put into solution in the aforementioned culture medium under sterile conditions. Suitable diluted aqueous saline solutions were made from parent solutions at 2% for poloxamers and 3 mM for the biliary acid salt.
The adipocytes were cultivated under sterile conditions (plastic dishes, incubator with 5% CO2, 37° C.) in suitable specific media and used for less than 10 passages oso as to conduct experiments on primary cells, i.e. close to the original adipous tissues. Cell counts were carried out in Mallassez cells and the viability was appreciated by exclusion of the blue dye Trypan.
After re-suspending them under the action of trypsin, the adipocytes were incubated in sterile 96-well plates. For experiments requiring significant amounts of cells, the preliminary incubations were conducted in sterile 24-well plates, and then transferred into 96-well plates (round bottom) for centrifugation, in order to efficiently separate entire cells from lyzed cells having released their enzymatic content then again found in the supernatant. An aliquot (100 μL) of the latter was then transferred into another 96-well plate adapted to dosages (flat bottom). After addition of the mixture of corresponding reagents (kit BioChain #K6330400), LDH activity was then measured (after incubation for 40 minutes with intermittent orbital stirring) in a computerized plate reader (MR5000/Biolinx, Dynatech) at the wavelength of 490 nm corrected from absorbance at 630 nm. The results are expressed as a percentage of the total lysis carried out in the presence of detergent (1% Triton X100).

[2] = tested on: adipocytes prepared from murine adipous tissues; assay: LDH released into the culture medium by murine adipocytes; type: cell-based; conditions: TDC 500 μM in 150 mOsm/L, compared with 150 mOsm/L alone (FIG. 7)
Protocol: Adipocytes were prepared from murine adipous tissues in the following way. Adipous tissues were sampled under aseptic conditions on anesthetized animals, and then finally cut and subjected to a dissociating enzymatic treatment with collagenase type II at 37° C. The incubation mixture was then centrifuged in order to remove the tissue debris. The adipocytes were purified by filtration under sterile conditions on a 160 μm nylon filter. After mild centrifugation, the adipocytes were washed from a phosphate buffer solution with pH 7.4 and, after counting, taken up again into a cell culture medium adapted from the type of Dubelco Modified Eagle's Medium or DMEM, and finally placed in sterile culture flasks and incubator at 37° C. adapted to the experiments. […]
Cell lysis was appreciated by the change in the number of adipocytes on the one hand and by the dosage of an intracellular enzyme released into the culture medium, lactico-dehydrogenase (abbreviated hereafter as LDH) on the other hand, expressed as a percentage with respect to the conditions for which cell lysis is complete (obtained in the presence of distilled water) and by comparison with the conditions of cell cultures.

Compound: sodium deoxycholate [DC]
- lytic activity (LDH activity) ([1]; 300 mOsm/L, 750 μM of DC, after one hour (FIG. 15 B)): 38±5%
- maximum lysis (LDH activity) ([1]; 300 mOsm/L, DC 0 to 750 μM, incubation of one hour): 42±7%
- LDH activity ([1]; 300 mOsm/L, DC 750 μM, after 30 minutes of incubation): 26%
- LDH activity ([1]; 300 mOsm/L, DC 750 μM, after 2 hours of incubation): 37%
- LDH activity ([1]; DC 750 μM added to hypo-osmolar (160 mOsm/L) aqueous saline solution, after one hour (FIG. 15 D or F)): ~72±8%

Compound: C[C@H](CCC(=O)NCCS(=O)(=O)[O-])[C@H]1CC[C@H]2[C@@H]3CC[C@@H]4C[C@H](O)CC[C@]4(C)[C@H]3C[C@H](O)[C@]12C.[Na+] [TDC, sodium tauro-deoxycholate]
- activity of LDH in the medium [2]: much more increased
